Experimental data taken from ChEMBL document CHEMBL3352059, “Neuroprotective effects of a brain permeant 6-aminoquinoxaline derivative in cell culture conditions that model the loss of dopaminergic neurons in Parkinson disease” (Eur J Med Chem, 2015).
Converted amounts (≈) assume the structure as drawn. The source made the active and inactive calls. The calls are words filed in the database; no cut-off is given here.

Experiments:
[1] = Ratio of drug uptake from brain to plasma in C57BL/6J mouse at 150 mg/kg, po bid administered for 4 days followed by single dose on day 5 measured 1 hr post last dose; type: ADME, organism-based; design: dose 150 mg/kg, route oral; details: read-out: BPR
Rattus norvegicus [2] = species on record: Rattus norvegicus; assay: Neuroprotective effect in Sprague-Dawley rat DA neurons at 100 uM in presence of anti-GDNF antibody AB-212-NA; type: functional
[3] = Aqueous solubility of the compound at pH 7.4 after 5 mins by HPLC analysis; type: physicochemical
[4] = Antioxidant activity assessed as radical scavenging activity after 1 hr by ABTS competition assay; type: physicochemical
Mus musculus [5] = assay: Toxicity in C57BL/6J mouse assessed as behavioral change at 150 mg/kg, po bid administered for 4 days followed by single dose on day 5 […]; type: organism-based; design: dose 150 mg/kg, route oral; details: in vivo, 96 h
Rattus norvegicus [6] = species on record: Rattus norvegicus; assay: Neuroprotective effect in Sprague-Dawley rat DA neurons at 100 uM after 10 days by immunofluorescence assay; type: functional
[7] = Drug uptake in C57BL/6J mouse ventral mesencephalon at 75 mg/kg, po after 1 hr by MALDI-TOF mass spectrometry; type: ADME, organism-based; design: dose 75 mg/kg, route oral; details: in vivo
Brain [8] = assay: Drug uptake in C57BL/6J mouse brain at 150 mg/kg, po bid administered for 4 days followed by single dose on day 5 measured 1 hr post last dose; type: ADME, organism-based; design: dose 150 mg/kg, route oral; details: in vivo
Rattus norvegicus [9] = species on record: Rattus norvegicus; assay: Neuroprotective effect in Sprague-Dawley rat DA neurons under GDNF deprived condition at 50 to 100 uM; type: functional
Nucleic Acid = assay: Ratio of drug uptake in C57BL/6J mouse striatum to cortical area at 75 mg/kg, po after 1 hr by MALDI-TOF mass spectrometry; type: ADME, organism-based; design: dose 75 mg/kg, route oral; details: in vivo
Striatum = assay: Drug uptake in C57BL/6J mouse striatum at 75 mg/kg, po after 1 hr by MALDI-TOF mass spectrometry; type: ADME, organism-based; design: dose 75 mg/kg, route oral; details: in vivo
Brain [10] = assay: Drug uptake in C57BL/6J mouse brain at 75 mg/kg, po after 1 hr by MALDI-TOF mass spectrometry; type: ADME, organism-based; design: dose 75 mg/kg, route oral; details: in vivo
Mus musculus [11] = assay: Toxicity in C57BL/6J mouse assessed as change in body weight at 150 mg/kg, po bid administered for 4 days followed by single dose on day 5 […]; type: organism-based; design: dose 150 mg/kg, route oral; details: in vivo, 96 h
Rattus norvegicus [12] = species on record: Rattus norvegicus; assay: Neuroprotective effect in Sprague-Dawley rat DA neurons assessed as developement of neuritic network at 100 uM after 10 days by microscopic analysis relative to control; type: functional
Rattus norvegicus [13] = species on record: Rattus norvegicus; assay: Antiproliferative activity at Sprague-Dawley rat DA neurons assessed as reduction of [3H]-thymidine incorporation at 50 to 100 uM after 8 days by liquid scintillation spectrometry; type: functional
Rattus norvegicus [14] = species on record: Rattus norvegicus; assay: Neuroprotective effect in Sprague-Dawley rat DA neurons under chronic oxidative stress condition; type: functional
Rattus norvegicus [15] = species on record: Rattus norvegicus; assay: Neuroprotective effect in Sprague-Dawley rat DA neurons at 10 uM under chronic oxidative stress condition; type: functional
Mus musculus [16] = assay: Toxicity in C57BL/6J mouse assessed as change in food intake at 150 mg/kg, po bid administered for 4 days followed by single dose on day 5 […]; type: organism-based; design: dose 150 mg/kg, route oral; details: in vivo, 96 h
Rattus norvegicus [17] = species on record: Rattus norvegicus; assay: Neuroprotective effect in Sprague-Dawley rat DA neurons assessed as [3H]-DA uptake at 100 uM after 10 days by liquid scintillation spectrometry relative to control; type: functional
Rattus norvegicus [18] = species on record: Rattus norvegicus; assay: Neuroprotective effect in Sprague-Dawley rat DA neurons assessed as [3H]-DA uptake after 10 days by liquid scintillation spectrometry relative to control; type: functional
Rattus norvegicus [19] = species on record: Rattus norvegicus; assay: Neuroprotective effect in Sprague-Dawley rat DA neurons after 10 days by immunofluorescence assay; type: functional
Rattus norvegicus [20] = species on record: Rattus norvegicus; assay: Neuroprotective effect in Sprague-Dawley rat DA neurons assessed as developement of neuritic network after 10 days by microscopic analysis relative to control; type: functional
Rattus norvegicus [21] = species on record: Rattus norvegicus; assay: Antiproliferative activity at Sprague-Dawley rat DA neurons assessed as reduction of [3H]-thymidine incorporation at 1 mM after 8 days by liquid scintillation spectrometry; type: functional
Rattus norvegicus [22] = species on record: Rattus norvegicus; assay: Neuroprotective effect in Sprague-Dawley rat DA neurons at 1 mM after 10 days by immunofluorescence assay; type: functional
Rattus norvegicus [23] = species on record: Rattus norvegicus; assay: Neuroprotective effect in Sprague-Dawley rat DA neurons assessed as [3H]-DA uptake at 10 uM after 10 days by liquid scintillation spectrometry relative to control; type: functional
Rattus norvegicus [24] = species on record: Rattus norvegicus; assay: Neuroprotective effect in Sprague-Dawley rat DA neurons at 10 uM after 10 days by immunofluorescence assay; type: functional
Rattus norvegicus [25] = species on record: Rattus norvegicus; assay: Neuroprotective effect in Sprague-Dawley rat DA neurons assessed as developement of neuritic network at 10 uM after 10 days by microscopic analysis relative to control; type: functional

Question: Which Kp at 1 h [1] does the source give for `Cc1nc2ccc(N)cc2nc1-c1ccccc1` here?
Answer: 1

Question: And the Activity (Rattus norvegicus [2])?
Answer: Active

Question: And the solubility at 5 min [3]?
Answer: 125 µM (≈ 29.4 µg/mL)

Question: And the IC50 [4]?
Answer: 350 µM

Question: And the Activity (Mus musculus [5])?
Answer: Non-toxic

Question: And the Activity (Rattus norvegicus [6])?
Answer: Active

Question: What about the Drug uptake [7] of the same compound?
Answer: Active

Question: And the Drug uptake (Brain [8])?
Answer: Active

Question: And the Activity (Rattus norvegicus [9])?
Answer: Active

Question: What about the Ratio (Nucleic Acid) of the same compound?
Answer: 2.7

Question: And the Drug uptake (Striatum)?
Answer: Active

Question: And the Drug uptake (Brain [10])?
Answer: Active

Question: And the Activity (Mus musculus [11])?
Answer: Non-toxic

Question: And the Activity (Rattus norvegicus [12])?
Answer: Active

Question: And the Activity (Rattus norvegicus [13])?
Answer: Active

Question: And the Activity (Rattus norvegicus [14])?
Answer: Dose-dependent effect

Question: What about the Activity (Rattus norvegicus [15]) of the same compound?
Answer: Active

Question: What about the Activity (Mus musculus [16]) of the same compound?
Answer: Non-toxic

Question: What about the Activity (Rattus norvegicus [17]) of the same compound?
Answer: Active

Question: For `CC(=O)N(O)CCCCCNC(=O)CCC(=O)N(O)CCCCCNC(=O)CCC(=O)N(O)CCCCCN`, which Activity (Rattus norvegicus [15]) is on record?
Answer: Active

Question: Which Activity (Rattus norvegicus [18]) does the source give for `Cc1cnc2cc(N)ccc2n1` here?
Answer: inactive

Question: And the Activity (Rattus norvegicus [19])?
Answer: inactive

Question: And the Activity (Rattus norvegicus [20])?
Answer: inactive

Question: Which Activity (Rattus norvegicus [18]) does the source give for `CCCCc1nc2cc(N)ccc2nc1C` here?
Answer: inactive

Question: And the Activity (Rattus norvegicus [19])?
Answer: inactive

Question: And the Activity (Rattus norvegicus [20])?
Answer: inactive

Question: Which results are given for `Nc1ccc2nccnc2c1`?
Answer: Activity (Rattus norvegicus [18]): inactive; Activity (Rattus norvegicus [19]): inactive; Activity (Rattus norvegicus [20]): inactive

Question: With `CCCC(=O)Nc1ncnc2c1ncn2[C@@H]1O[C@@H]2COP(=O)(O)O[C@H]2[C@H]1OC(=O)CCC` as the compound, how does the Activity (Rattus norvegicus [21]) read?
Answer: Active

Question: And the Activity (Rattus norvegicus [22])?
Answer: Active

Question: With `CCCCCCc1nc2ccc(N)cc2nc1CCCC` as the compound, how does the Activity (Rattus norvegicus [18]) read?
Answer: inactive

Question: And the Activity (Rattus norvegicus [19])?
Answer: inactive

Question: What about the Activity (Rattus norvegicus [20]) of the same compound?
Answer: inactive

Question: What does the source list for `CCCCCCCCCCCCCCCNc1ccc2nc(C)cnc2c1`?
Answer: solubility at 5 min [3]: 5 µM (≈ 1.85 µg/mL); Activity (Rattus norvegicus [23]): Active; Activity (Rattus norvegicus [24]): inactive; Activity (Rattus norvegicus [25]): Active

Question: With `Cc1c(C)c2c(c(C)c1O)CCC(C)(C(=O)O)O2` (configuration not stated) [TROLOX] as the compound, how does the IC50 [4] read?
Answer: 270 µM

Question: Which results are given for `CCCCc1cnc2ccc(N)cc2n1`?
Answer: Activity (Rattus norvegicus [18]): inactive; Activity (Rattus norvegicus [19]): inactive; Activity (Rattus norvegicus [20]): inactive
